In experiment [1] the target is T1, Tyrosine-protein phosphatase non-receptor type 7 (Homo sapiens, UniProt P35236).
T1 sequence (P35236 whole entry): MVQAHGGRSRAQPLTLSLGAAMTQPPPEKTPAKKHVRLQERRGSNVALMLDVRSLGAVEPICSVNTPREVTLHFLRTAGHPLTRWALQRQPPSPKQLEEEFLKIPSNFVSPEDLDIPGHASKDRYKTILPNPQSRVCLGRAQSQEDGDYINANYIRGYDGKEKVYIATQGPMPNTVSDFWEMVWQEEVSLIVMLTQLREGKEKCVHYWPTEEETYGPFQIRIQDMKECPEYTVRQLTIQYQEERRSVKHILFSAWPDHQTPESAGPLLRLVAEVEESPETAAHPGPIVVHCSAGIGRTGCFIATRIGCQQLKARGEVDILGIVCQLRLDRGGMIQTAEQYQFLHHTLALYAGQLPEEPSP
Description: inhibitors of human HePTP phosphatase, […], biochemical, absorbance, leukemia target (AID 521). It is filed as functional.

The target of another experiment is Cytochrome P450 2D6 (Homo sapiens, UniProt P10635).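 Note: CYP2D6 member of a cytochrome P450 panel assay.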
For a further experiment, the target named is T2, Leucine aminopeptidase (Plasmodium falciparum 3D7, UniProt Q8IL11).
T2 sequence (Q8IL11 whole entry): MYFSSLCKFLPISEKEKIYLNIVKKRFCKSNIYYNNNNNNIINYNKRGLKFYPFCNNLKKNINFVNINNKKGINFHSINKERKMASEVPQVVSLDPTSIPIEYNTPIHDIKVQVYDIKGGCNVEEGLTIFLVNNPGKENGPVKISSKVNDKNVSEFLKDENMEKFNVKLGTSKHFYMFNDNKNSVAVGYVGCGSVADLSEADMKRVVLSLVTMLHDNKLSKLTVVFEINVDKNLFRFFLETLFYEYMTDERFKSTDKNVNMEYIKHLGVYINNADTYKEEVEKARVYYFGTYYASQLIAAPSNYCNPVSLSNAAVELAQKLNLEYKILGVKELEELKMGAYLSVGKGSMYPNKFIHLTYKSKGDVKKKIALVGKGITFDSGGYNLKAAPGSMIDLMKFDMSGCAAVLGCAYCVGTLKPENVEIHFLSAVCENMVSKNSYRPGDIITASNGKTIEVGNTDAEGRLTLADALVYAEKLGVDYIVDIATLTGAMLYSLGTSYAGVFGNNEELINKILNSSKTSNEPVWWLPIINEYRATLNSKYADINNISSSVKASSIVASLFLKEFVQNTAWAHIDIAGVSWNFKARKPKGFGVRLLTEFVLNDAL
Description: P. falciparum M17LAP inhibitors, primary screen, biochemical, fluorogenic H-Leu-NHMec substrate, 1536-well (AID 1619). It is filed as functional.

The target of another experiment is T3, Aspartyl aminopeptidase (Plasmodium falciparum 3D7, UniProt Q8I2J3).
T3 sequence (Q8I2J3 whole entry): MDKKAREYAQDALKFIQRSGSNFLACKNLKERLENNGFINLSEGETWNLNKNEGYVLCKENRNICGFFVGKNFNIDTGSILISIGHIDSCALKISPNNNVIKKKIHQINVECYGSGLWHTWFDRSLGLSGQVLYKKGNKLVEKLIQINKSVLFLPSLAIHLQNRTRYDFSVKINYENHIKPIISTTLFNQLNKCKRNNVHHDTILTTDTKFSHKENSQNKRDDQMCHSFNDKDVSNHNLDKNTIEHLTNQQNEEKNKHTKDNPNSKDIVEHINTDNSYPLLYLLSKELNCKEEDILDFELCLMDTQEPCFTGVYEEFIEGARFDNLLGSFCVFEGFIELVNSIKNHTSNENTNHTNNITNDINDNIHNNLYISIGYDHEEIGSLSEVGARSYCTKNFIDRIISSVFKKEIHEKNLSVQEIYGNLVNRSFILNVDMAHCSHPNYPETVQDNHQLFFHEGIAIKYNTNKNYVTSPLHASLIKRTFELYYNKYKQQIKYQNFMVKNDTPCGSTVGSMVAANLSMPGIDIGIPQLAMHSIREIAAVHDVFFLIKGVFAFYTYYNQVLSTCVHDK
Description: Counterscreen for inhibitors of M1 and M17 aminopeptidases: QFRET-based biochemical high throughput dose response assay for inhibitors of the Plasmodium falciparum M18 Aspartyl Aminopeptidase (PFM18AAP). [Related PubChem assays: 1619 (Screening assay (M17LAP inhibitors).), 1445 (Screening assay (M1AAP inhibitors).)]. In general terms: The purpose of a counterscreen is to sort out artefacts and off-target activity.

A further experiment concerns the target Procathepsin L (Homo sapiens, UniProt P07711). The experiment can be described thus: cathepsin L inhibitors, dose response, counter-screen for M1/M17 aminopeptidase inhibitor project, biochemical, QFRET, 1536-well (AID 2214).
Experiment [2] in a line: growth suppression of PTEN-null colon cells, dose response, cell-based, HCT116 PTEN knockout (AID 1047).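 Note: HCT116 colon tumor cells with PTEN knocked out; cells exposed to compound for 60 hours before readout; potency for loss of cell viability measured by luminescence.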 The class given is functional.
Experiment [3] in a line: growth suppression of beta-catenin-knockout colon cells, dose response, cell-based, HCT116, human colon tumor (AID 1045).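 Note: HCT116 colon tumor cells with beta catenin knocked out; cells exposed to compound for 60 hours.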 The class given is functional.
Experiment [4] can be described thus: inhibitors of PGC1a acetylation in cells, dose response, cell-based, cherry-picked samples (AID 720514).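 Note: potency may reflect raised or lowered acetylation signal.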 The class given is functional.
The target of a further experiment is Estrogen receptor beta (Homo sapiens, UniProt Q92731).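 Note: recombinant ER-beta bound to coactivator SRC1 peptide in presence of estradiol agonist; inhibitors block coactivator peptide binding and lower the FRET signal.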
The target of experiment [5] is T4, Rac GTPase-activating protein 1 (Homo sapiens, UniProt Q9H0H5).
T4 sequence (Q9H0H5 whole entry): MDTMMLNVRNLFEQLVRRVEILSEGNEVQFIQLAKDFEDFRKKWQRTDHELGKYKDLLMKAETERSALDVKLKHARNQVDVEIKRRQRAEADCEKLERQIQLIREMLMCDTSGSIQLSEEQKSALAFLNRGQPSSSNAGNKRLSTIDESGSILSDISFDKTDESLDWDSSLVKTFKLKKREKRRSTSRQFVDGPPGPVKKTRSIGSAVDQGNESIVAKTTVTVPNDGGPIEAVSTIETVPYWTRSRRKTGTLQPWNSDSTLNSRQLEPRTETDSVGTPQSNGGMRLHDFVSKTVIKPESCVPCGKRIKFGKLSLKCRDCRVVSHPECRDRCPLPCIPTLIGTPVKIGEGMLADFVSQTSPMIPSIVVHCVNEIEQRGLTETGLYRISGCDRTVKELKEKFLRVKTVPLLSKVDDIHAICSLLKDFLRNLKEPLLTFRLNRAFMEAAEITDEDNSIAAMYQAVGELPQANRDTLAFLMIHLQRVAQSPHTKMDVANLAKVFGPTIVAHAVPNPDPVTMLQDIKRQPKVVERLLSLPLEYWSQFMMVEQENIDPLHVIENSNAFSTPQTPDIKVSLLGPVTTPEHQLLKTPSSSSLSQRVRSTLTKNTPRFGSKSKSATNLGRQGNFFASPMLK
Description: MgcRacGAP GTPase-activating activity inhibitors, confirmation, biochemical, ADP Hunter fluorescence, primary and confirmatory (AID 624330). The class given is functional.

A short description of experiment [6]: inhibitors of Vif binding to APOBEC3G peptide, primary screen, biochemical, TR-FRET, GST-Vif 1-94, biotin-A3G peptide, dose response retest (AID 1117319).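 Note: inhibitors lower the FRET signal by blocking Vif and A3G binding.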 The class given is functional. (In general: In TR-FRET formats the signal depends on donor and acceptor labels being close together.)
For experiment [7], the target named is NAD-dependent protein deacylase sirtuin-5, mitochondrial (Homo sapiens, UniProt Q9NXA8). The experiment can be described thus: SIRT5 desuccinylase inhibitors, dose response, biochemical, fluorescence imaging, cherry-pick, set 5 (AID 720591).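 Note: desuccinylation of succinyl peptide AMC substrate read as fluorescence after trypsin release; potency of inhibitors that lower fluorescence and may act on trypsin instead.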
Experiment [8] addresses T5, Fatty acid synthase (Homo sapiens, UniProt P49327). Description: FAS thioesterase domain inhibitors, dose response, biochemical, endpoint fluorescence intensity, uHTS hits (AID 624327).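 Note: fluorescence from hydrolysis of an O-methyl fluorescein acyl ester substrate by the enzyme.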 It is filed as functional.
Experiment [9] has as its target T5, Fatty acid synthase. The experiment can be described thus: FAS thioesterase domain inhibitors, dose response, biochemical, kinetic fluorescence intensity (AID 624326).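 Note: rate of fluorescence rise from hydrolysis of a fluorogenic O-methyl fluorescein ester substrate.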 It is filed as functional.
The target in experiment [10] is Disintegrin and metalloproteinase domain-containing protein 17 (Homo sapiens, UniProt P78536). Description: ADAM17 protease inhibitors, dose response, counter-screen for ADAM10 exosite inhibitor project, biochemical, quenched FRET substrate (AID 743253).
For experiment [11], the target named is T6, RNA-editing ligase 1, mitochondrial (Trypanosoma brucei brucei, UniProt P86926).
T6 sequence (P86926 whole entry): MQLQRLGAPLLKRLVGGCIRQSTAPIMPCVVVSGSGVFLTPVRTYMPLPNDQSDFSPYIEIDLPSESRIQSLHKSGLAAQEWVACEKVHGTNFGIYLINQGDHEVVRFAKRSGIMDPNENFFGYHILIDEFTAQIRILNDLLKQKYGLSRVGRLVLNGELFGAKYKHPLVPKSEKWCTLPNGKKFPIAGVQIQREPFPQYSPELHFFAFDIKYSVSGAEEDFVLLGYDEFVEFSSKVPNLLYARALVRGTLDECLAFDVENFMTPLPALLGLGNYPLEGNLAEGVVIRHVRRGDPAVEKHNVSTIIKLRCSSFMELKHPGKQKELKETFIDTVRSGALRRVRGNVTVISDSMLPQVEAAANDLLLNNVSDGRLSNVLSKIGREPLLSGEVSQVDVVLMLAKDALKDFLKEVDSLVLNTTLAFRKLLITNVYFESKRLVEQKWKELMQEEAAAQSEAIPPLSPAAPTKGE
Description: TbREL1 ligase inhibitors, dose response, biochemical, fluorescence, Trypanosoma brucei (AID 1117295). It is filed as functional.

Experiment [12] is described as follows: cytotoxicity in HPDE-C7 cells, cell-based, fluorescence, HTS (AID 430). It is filed as functional. Particulars: Homo sapiens.
A short description of experiment [13]: cytotoxicity in KRAS-transformed pancreatic duct cells, primary screen, cell-based, fluorescence, HTS (AID 431).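 Note: cell line used: HPDE-C7K.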 The class given is functional. The conditions noted are these: Homo sapiens.

IC50, AC50 and EC50 data for 15 compounds are collected here from ChEMBL document CHEMBL1201862, “PubChem BioAssay data set” (2004).

Active and inactive are the calls of the source.

Procathepsin L, sequence (P07711 whole entry): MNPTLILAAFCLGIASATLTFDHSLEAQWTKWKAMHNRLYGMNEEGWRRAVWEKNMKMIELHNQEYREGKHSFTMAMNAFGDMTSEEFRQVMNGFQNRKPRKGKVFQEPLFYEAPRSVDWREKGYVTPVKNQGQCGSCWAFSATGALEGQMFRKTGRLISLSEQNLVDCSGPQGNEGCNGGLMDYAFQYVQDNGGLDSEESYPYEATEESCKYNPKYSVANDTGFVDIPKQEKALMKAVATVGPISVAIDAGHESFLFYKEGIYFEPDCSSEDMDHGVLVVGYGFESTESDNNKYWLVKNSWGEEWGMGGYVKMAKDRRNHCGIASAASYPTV
NAD-dependent protein deacylase sirtuin-5, mitochondrial, sequence (Q9NXA8 whole entry, the tested form may be a part): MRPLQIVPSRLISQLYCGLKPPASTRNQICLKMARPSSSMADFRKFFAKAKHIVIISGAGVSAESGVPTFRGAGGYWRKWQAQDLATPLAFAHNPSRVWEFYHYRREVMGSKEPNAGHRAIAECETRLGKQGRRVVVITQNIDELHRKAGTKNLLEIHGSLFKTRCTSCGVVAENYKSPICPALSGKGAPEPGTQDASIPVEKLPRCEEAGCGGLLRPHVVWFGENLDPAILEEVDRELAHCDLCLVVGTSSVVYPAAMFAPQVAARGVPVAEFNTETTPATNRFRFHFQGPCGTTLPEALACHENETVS
T5 sequence (P49327 whole entry, the tested form may be a part): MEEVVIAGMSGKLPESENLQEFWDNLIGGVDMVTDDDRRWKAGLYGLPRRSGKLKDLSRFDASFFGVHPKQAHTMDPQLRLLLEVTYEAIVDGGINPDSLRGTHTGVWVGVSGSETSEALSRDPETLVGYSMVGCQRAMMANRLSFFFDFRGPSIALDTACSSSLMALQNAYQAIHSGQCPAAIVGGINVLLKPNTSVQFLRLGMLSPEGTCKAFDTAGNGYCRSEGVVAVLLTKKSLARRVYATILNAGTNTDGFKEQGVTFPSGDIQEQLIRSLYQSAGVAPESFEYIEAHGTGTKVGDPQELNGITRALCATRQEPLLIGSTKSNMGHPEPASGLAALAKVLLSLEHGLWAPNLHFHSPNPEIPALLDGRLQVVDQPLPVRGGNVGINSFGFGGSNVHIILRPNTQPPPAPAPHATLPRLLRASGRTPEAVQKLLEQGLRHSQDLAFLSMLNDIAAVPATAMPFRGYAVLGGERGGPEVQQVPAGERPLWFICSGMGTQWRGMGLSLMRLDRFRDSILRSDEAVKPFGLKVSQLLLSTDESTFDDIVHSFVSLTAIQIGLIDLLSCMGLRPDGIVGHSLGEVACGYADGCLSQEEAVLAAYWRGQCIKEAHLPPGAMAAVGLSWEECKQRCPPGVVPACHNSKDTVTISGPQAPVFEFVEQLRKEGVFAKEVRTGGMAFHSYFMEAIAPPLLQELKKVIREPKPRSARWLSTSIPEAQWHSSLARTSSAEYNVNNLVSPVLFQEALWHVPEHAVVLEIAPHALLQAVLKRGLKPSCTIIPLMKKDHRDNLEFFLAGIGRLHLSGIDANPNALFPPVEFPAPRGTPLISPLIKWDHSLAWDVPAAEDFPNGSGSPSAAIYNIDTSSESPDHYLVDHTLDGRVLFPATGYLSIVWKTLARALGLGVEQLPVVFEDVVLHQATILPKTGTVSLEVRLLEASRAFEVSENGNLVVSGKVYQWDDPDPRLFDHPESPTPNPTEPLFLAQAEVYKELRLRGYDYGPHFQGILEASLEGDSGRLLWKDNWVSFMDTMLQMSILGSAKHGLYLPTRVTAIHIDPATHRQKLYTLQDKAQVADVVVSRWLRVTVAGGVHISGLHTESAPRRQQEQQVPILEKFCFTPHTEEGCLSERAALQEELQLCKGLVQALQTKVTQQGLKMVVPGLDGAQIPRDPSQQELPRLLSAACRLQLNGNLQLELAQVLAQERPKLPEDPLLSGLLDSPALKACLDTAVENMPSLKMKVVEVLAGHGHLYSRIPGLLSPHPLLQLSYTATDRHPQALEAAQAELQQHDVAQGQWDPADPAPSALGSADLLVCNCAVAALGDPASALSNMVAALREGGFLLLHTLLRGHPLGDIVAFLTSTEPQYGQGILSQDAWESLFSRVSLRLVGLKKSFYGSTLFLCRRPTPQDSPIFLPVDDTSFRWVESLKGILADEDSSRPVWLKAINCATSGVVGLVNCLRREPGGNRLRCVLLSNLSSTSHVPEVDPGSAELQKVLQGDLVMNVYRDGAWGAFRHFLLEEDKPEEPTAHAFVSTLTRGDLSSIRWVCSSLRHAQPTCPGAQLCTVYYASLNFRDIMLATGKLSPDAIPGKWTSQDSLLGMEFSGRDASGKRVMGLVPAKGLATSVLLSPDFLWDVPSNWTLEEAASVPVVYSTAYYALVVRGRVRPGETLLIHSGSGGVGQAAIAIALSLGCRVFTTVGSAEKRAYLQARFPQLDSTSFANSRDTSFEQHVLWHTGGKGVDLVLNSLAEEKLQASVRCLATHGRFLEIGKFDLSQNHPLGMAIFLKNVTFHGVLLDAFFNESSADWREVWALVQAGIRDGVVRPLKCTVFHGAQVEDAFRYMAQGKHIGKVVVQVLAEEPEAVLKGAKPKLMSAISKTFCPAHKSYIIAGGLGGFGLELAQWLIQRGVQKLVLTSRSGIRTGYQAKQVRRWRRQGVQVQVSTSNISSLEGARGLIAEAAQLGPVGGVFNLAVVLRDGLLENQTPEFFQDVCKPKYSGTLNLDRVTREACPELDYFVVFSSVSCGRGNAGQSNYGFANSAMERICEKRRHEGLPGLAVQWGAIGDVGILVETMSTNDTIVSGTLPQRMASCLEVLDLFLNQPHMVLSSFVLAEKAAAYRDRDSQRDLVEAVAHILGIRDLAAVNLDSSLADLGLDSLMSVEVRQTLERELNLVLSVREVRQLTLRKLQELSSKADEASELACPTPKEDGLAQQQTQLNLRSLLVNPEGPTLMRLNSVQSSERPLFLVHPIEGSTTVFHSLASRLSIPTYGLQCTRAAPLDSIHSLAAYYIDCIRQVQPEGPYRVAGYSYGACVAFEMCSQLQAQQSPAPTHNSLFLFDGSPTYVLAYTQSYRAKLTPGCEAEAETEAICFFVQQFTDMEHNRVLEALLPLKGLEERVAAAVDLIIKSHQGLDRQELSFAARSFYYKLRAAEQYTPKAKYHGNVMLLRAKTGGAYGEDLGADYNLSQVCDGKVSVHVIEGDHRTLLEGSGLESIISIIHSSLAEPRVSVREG
Disintegrin and metalloproteinase domain-containing protein 17, sequence (P78536 whole entry, the tested form may be a part): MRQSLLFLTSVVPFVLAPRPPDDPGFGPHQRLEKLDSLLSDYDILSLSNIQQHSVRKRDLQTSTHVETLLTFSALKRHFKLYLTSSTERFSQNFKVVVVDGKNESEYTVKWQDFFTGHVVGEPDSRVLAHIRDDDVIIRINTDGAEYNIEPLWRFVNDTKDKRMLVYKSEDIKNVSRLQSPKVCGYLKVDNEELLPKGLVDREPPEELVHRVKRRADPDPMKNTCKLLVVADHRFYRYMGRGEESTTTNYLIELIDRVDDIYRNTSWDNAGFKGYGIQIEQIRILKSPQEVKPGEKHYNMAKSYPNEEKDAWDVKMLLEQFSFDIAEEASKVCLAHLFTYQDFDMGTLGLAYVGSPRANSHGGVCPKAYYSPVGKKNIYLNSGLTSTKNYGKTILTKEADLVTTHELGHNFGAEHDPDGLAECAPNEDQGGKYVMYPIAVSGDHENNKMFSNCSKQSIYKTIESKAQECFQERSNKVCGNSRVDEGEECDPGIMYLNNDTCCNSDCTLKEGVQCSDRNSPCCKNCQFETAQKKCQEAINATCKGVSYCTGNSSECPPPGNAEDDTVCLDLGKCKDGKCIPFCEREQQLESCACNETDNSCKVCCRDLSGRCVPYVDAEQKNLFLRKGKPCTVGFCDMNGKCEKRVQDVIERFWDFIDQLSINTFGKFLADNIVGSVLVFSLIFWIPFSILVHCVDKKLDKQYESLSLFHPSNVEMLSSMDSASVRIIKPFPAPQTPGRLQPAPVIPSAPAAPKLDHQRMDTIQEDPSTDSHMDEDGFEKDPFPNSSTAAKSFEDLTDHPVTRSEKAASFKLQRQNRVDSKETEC
Estrogen receptor beta, sequence (Q92731 whole entry): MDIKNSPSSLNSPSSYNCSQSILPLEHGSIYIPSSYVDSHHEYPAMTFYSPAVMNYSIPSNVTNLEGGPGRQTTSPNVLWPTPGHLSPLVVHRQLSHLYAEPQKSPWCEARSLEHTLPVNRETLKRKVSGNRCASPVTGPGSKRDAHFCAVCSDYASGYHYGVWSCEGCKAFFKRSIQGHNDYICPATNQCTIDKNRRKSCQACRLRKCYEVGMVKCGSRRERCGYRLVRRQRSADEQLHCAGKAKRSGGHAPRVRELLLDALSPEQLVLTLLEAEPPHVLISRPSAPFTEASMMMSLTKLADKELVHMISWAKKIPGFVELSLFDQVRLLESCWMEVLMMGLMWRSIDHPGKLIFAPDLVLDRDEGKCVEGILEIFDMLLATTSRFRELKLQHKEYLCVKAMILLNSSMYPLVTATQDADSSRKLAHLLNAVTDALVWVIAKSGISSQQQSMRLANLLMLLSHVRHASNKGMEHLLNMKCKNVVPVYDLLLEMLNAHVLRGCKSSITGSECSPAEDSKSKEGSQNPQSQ
Cytochrome P450 2D6, sequence (P10635 whole entry): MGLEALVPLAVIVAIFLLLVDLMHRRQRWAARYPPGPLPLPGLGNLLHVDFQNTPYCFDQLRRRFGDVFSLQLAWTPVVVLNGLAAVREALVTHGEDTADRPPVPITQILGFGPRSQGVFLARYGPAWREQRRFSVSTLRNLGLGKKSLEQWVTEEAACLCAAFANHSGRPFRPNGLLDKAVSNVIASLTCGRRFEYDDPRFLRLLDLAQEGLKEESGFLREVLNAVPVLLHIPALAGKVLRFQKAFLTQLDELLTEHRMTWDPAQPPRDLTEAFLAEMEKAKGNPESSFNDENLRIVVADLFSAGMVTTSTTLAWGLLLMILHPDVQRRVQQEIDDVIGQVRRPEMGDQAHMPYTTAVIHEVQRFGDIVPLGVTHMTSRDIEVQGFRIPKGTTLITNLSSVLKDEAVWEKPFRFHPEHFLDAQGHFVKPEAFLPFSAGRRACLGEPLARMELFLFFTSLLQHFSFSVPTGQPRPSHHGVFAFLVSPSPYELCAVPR

As a reminder, the IC50 is the concentration needed to halve the response being measured. One may read the AC50 as the concentration at which the activity in the assay is half-maximal. As for `Cc1ccc(C(=O)c2c[nH]nc2-c2cc(Cl)ccc2O)cc1`, the IC50 in experiment [1] is reported as > 100 µM (not active). Further, the concentration at half-maximal activity (AC50) on Cytochrome P450 2D6 is 28.2 µM (inconclusive).

In the case of `CCc1cc2cc(OC)ccc2nc1SCC(=O)Nc1cc(OC)c(OC)cc1C(=O)O`, the results for the IC50 at Leucine aminopeptidase, against Aspartyl aminopeptidase and against Procathepsin L were < 1 µM (active), > 73.5 µM (not active) and > 59.6 µM (not active), respectively.

`CC(C)(C)n1nnnc1C(c1ccc(C#N)cc1)N1CCCC2(CCCCC2)C1` (stereo not given): the IC50 in experiment [1] is recorded as > 100 µM (not active).

As for `Cc1cc(C(=O)COC(=O)c2ccc[nH]c2=O)c(C)n1-c1ccc(Br)cc1`, the results for the IC50 on Leucine aminopeptidase, against Aspartyl aminopeptidase and on Procathepsin L were 2.74 µM (active), > 73.5 µM (not active) and > 59.6 µM (not active), respectively.

A word on the EC50: it is the concentration at which the effect is half-maximal. On to `Cc1ccccc1-n1nnnc1Sc1nnnn1-c1ccccc1`, for which the concentration giving a half-maximal response (EC50) in [2] is 4.94 µM (active); in experiment [3] it was 4.42 µM (active). Further, the concentration at half-maximal activity (AC50) in [4] is 10.4 µM (active).

For the compound `CCc1cc2c(=O)n(CC)c(SC(C)C(=O)Nc3c(C)n(C)n(-c4ccccc4)c3=O)nc2s1` (stereo not given), at Estrogen receptor beta, the half-maximal inhibitory concentration (IC50) is on record as > 50 µM (not active).

In the case of `CC1CCc2sc(NC(=O)C3CC(Cl)=CCC3C(=O)O)c(C#N)c2C1` (stereo not given), the concentration for half-maximal inhibition (IC50) at Leucine aminopeptidase is < 1 µM (active); on Aspartyl aminopeptidase it was > 73.5 µM (not active); against Procathepsin L it was > 59.6 µM (not active).

Consider `CCOc1ccc(C2NC(=O)C(C#N)=C(S)N2c2ccc(OC)cc2)cc1OC` (stereo not given), for which the IC50 is 134 µM (active) in experiment [5] and > 100 µM (active) in [6].

For `COc1ccc(OC)c(C2Nc3ccccc3N=C3CC(C)(C)CC(O)=C32)c1` (stereo not given), in experiment [7], the AC50 was > 30 µM (inactive).

Turning to `CN(Cc1ccccc1)C(c1ccnc2ccccc12)c1nnnn1-c1ccc2c(c1)OCCO2` (stereo not given), the concentration at half-maximal activity (AC50) in experiment [7] is 14.2 µM (active).

As for `CCN(CC)CCNc1ccnc2cc(Cl)ccc12`, the half-maximal inhibitory concentration (IC50) in experiment [1] is > 100 µM (not active).

Regarding `Fc1c(F)c(C(F)(F)F)c(F)c(F)c1N/N=C\c1cccs1`, the EC50 in experiment [2] was 109 µM (active); in experiment [3], 43.1 µM (active). In addition, the IC50 at Fatty acid synthase [8] is 10.4 µM (active); on Fatty acid synthase [9], 10.2 µM (active); in experiment [10], > 69.5 µM (inactive).

Consider `COC(=O)C1=C(C)N(Cc2ccccc2C(F)(F)F)C(NCc2ccc3c(c2)OCO3)=NC1c1cccc(Cl)c1` (stereo not given), for which the IC50 in experiment [11] is > 96.6 µM (inactive).

For the compound `COC(=O)C1=C(C)N(Cc2ccccc2C(F)(F)F)C(NCc2ccccc2)=NC1c1ccc(Cl)cc1` (stereo not given), the IC50 in [11] was > 96.6 µM (inactive).

For the compound `CCc1ccc(C(=O)CSC2=C(C#N)C(c3ccco3)C(C(C)=O)=C(C)N2)cc1` (stereo not given), the EC50 in experiment [12] is 14.4 µM (active); in [13], 15.7 µM (active).
